In US20080167314A1, “Condensed Imidazole Compound And Use Thereof” (priority 2004, published 2008):

SMILES	melting point [°C]
Cc1cccc(-c2nc3cccnn3c2-c2ccnc(NCC3CCCCC3)c2)c1 [Example 38, N-(Cyclohexylmethyl)-4-[2-(3-methylphenyl)imidazo[1,2-b]pyridazin-3-yl]pyridin-2-amine]	128 to 130
COc1ccnn2c(-c3ccnc(N)c3)c(-c3ccc(F)c(C)c3)nc12 [Example Compound 37-4, 4-[2-(4-fluoro-3-methylphenyl)-8-methoxyimidazo[1,2-b]pyridazin-3-yl]-2-pyridylamine]	219 to 220
COc1ccc(C(=O)Nc2cc(-c3c(-c4cccc(C)c4)nc4ccc(N(C)C)nn34)ccn2)cc1 [Example 45-1, N-{4-[6-(dimethylamino)-2-(3-methylphenyl)imidazo[1,2-b]pyridazin-3-yl]pyridin-2-yl}-4-methoxybenzamide]	193 to 194
Cc1cccc(-c2nc3cccnn3c2-c2ccnc(NCC(C)(C)C)c2)c1 [Example compound 6-18, N-(2,2-dimethylpropyl)-4-[2-(3-methylphenyl)imidazo[1,2-b]pyridazin-3-yl]pyridin-2-amine]	157 to 158
Cc1cccc(-c2nc3ccc(Cl)nn3c2-c2ccnc(Nc3ccccc3C)c2)c1 [Example Compound 3-2, 4-[6-chloro-2-(3-methylphenyl)imidazo[1,2-b]pyridazin-3-yl]-N-(2-methylphenyl)pyridin-2-amine]	191 to 192
COc1ccccc1Nc1cc(-c2c(-c3cccc(C)c3)nc3cccnn23)ccn1 [Example Compound 6-6, N-(2-methoxyphenyl)-4-[2-(3-methylphenyl)imidazo[1,2-b]pyridazin-3-yl]pyridin-2-amine]	157 to 158
Cc1cccc(-c2nc3cccnn3c2-c2ccnc(NC3CCC3)c2)c1 [Example Compound 6-3, N-cyclobutyl-4-[2-(3-methylphenyl)imidazo[1,2-b]pyridazin-3-yl]pyridin-2-amine]	152 to 153
Cc1cccc(-c2nc3cccnn3c2-c2ccnc(N[C@@H](C)c3ccccc3)c2)c1 [Example Compound 6-21, 4-[2-(3-methylphenyl)imidazo[1,2-b]pyridazin-3-yl]-N-[(1S)-1-phenylethyl]pyridin-2-amine]	154 to 155
Cc1cccc(-c2nc3cccnn3c2-c2ccnc(NC(=O)c3ccncc3)n2)c1 [Example 44-3, N-{4-[2-(3-methylphenyl)imidazo[1,2-b]pyridazin-3-yl]pyrimidin-2-yl}isonicotinamide]	181 to 182
Cc1cccc(-c2nc3cccnn3c2-c2ccnc(N)n2)c1 [Example Compound 37-1, 4-[2-(3-methylphenyl)imidazo[1,2-b]pyridazin-3-yl]-2-pyrimidinamine]	250 to 251
CNc1ccc2nc(-c3ccc(F)c(C)c3)c(-c3ccnc(NC(=O)c4ccc(OC)cc4)c3)n2n1 [Example 46, N-{4-[2-(4-Fluoro-3-methylphenyl)-6-(methylamino)imidazo[1,2-b]pyridazin-3-yl]pyridin-2-yl}-4-methoxybenzamide]	178 to 180
Cc1cc(-c2nc3c([S+](C)[O-])cc(Cl)nn3c2-c2ccnc(N)c2)ccc1F (stereo not drawn) [Example 57-2, 4-[6-chloro-2-(4-fluoro-3-methylphenyl)-8-(methylsulfinyl)imidazo[1,2-b]pyridazin-3-yl]-2-pyridylamine]	216 to 217
Cc1cccc(-c2nc3cccnn3c2-c2ccnc(N(C(=O)C3CC3)C(=O)C3CC3)c2)c1 [Example Compound 23-1, N-(cyclopropylcarbonyl)-N-{4-[2-(3-methylphenyl)imidazo[1,2-b]pyridazin-3-yl]pyridin-2-yl}cyclopropanecarboxamide]	173 to 175
O=C(Nc1cc(-c2c(-c3ccc(F)cc3)nc3cccnn23)ccn1)c1ccc(Cl)nc1 [Example 40-2, 6-chloro-N-{4-[2-(4-fluorophenyl)imidazo[1,2-b]pyridazin-3-yl]pyridin-2-yl}nicotinamide]	247 to 248
Cc1cccc(-c2nc3cccnn3c2-c2ccnc(Nc3cccc(C)c3C)c2)c1 [Example Compound 6-7, N-(2,3-dimethylphenyl)-4-[2-(3-methylphenyl)imidazo[1,2-b]pyridazin-3-yl]pyridin-2-amine]	187 to 188
COc1ccc(C(=O)Nc2cc(-c3c(-c4ccc(F)c(C)c4)nc4ccc(N(C)C)nn34)ccn2)cc1 [Example 45-2, N-{4-[6-(dimethylamino)-2-(4-fluoro-3-methylphenyl)imidazo[1,2-b]pyridazin-3-yl]pyridin-2-yl}-4-methoxybenzamide]	224 to 225
Cc1cc(-c2nc3c(C)cc(Cl)nn3c2-c2ccnc(N)c2)ccc1F [Example Compound 36-1, 4-[6-chloro-2-(4-fluoro-3-methylphenyl)-8-methylimidazo[1,2-b]pyridazin-3-yl]-2-pyridylamine]	218 to 219

The remaining lines, values ahead:

melting point [°C]	SMILES
214 to 215	Cc1cc(-c2nc3cccnn3c2-c2ccnc(NC(=O)C(C)C)c2)ccc1F [Example 42-2, N-{4-[2-(4-fluoro-3-methylphenyl)imidazo[1,2-b]pyridazin-3-yl]pyridin-2-yl}-2-methylpropanamide]
202 to 203	Cc1cccc(NC(=O)Nc2cc(-c3c(-c4cccc(C)c4)nc4cccnn34)ccn2)c1 [Example Compound 27-2, N-(3-methylphenyl)-N′-{4-[2-(3-methylphenyl)imidazo[1,2-b]pyridazin-3-yl]pyridin-2-yl}urea]
97 to 98	CCN(CC)CCNc1cc(-c2c(-c3cccc(C)c3)nc3cccnn23)ccn1 [Example Compound 6-19, N,N-diethyl-N′-{4-[2-(3-methylphenyl)imidazo[1,2-b]pyridazin-3-yl]pyridin-2-yl}ethane-1,2-diamine]
239 to 240	Cc1cc(NC(=O)Nc2cc(-c3c(-c4ccc(F)c(C)c4)nc4cccnn34)ccn2)[nH]n1 [Example 51-8, N-{4-[2-(4-fluoro-3-methylphenyl)imidazo[1,2-b]pyridazin-3-yl]pyridin-2-yl}-N′-(3-methyl-1H-pyrazol-5-yl)urea]
188 to 189	Cc1cc(-c2nc3cccnn3c2-c2ccnc(NC(=O)NCCCCO)c2)ccc1F.Cl
170 to 171	Cc1cc(-c2nc3cccnn3c2-c2ccnc(NC(=O)NCCCCl)c2)ccc1F [Example 47-4, N-(3-chloropropyl)-N′-{4-[2-(4-fluoro-3-methylphenyl)imidazo[1,2-b]pyridazin-3-yl]pyridin-2-yl}urea]
212 to 213	CCNC(=O)Nc1cc(-c2c(-c3ccc(F)c(C)c3)nc3cc(C(C)(C)C)cnn23)ccn1 [Example 48-4, N-{4-[7-tert-butyl-2-(4-fluoro-3-methylphenyl)imidazo[1,2-b]pyridazin-3-yl]-2-pyridyl}-N′-ethylurea]
222 to 223	CC(C)NC(=O)Nc1cc(-c2c(-c3ccc(F)cc3)nc3cccnn23)ccn1 [Example Compound 28-10, N-{4-[2-(4-fluorophenyl)imidazo[1,2-b]pyridazin-3-yl]pyridin-2-yl}-N′-isopropylurea]
226 to 227	O=C(Nc1cc(-c2c(-c3ccc(F)cc3)nc3cccnn23)ccn1)c1ccncc1 [Example 40-1, N-{4-[2-(4-fluorophenyl)imidazo[1,2-b]pyridazin-3-yl]pyridin-2-yl}isonicotinamide]
155 to 156	CCC(CC)Nc1cc(-c2c(-c3cccc(C)c3)nc3cccnn23)ccn1 [Example compound 6-20, N-(1-ethylpropyl)-4-[2-(3-methylphenyl)imidazo[1,2-b]pyridazin-3-yl]pyridin-2-amine]
263 to 264	CCNC(=O)Nc1cc(-c2c(-c3ccc(F)c(C)c3)nc3ccc(NC)nn23)ccn1 [Example 48-5, N-ethyl-N′-{4-[2-(4-fluoro-3-methylphenyl)-6-(methylamino)imidazo[1,2-b]pyridazin-3-yl]pyridin-2-yl}urea]
202 to 203	COc1ccc(C(=O)Nc2cc(-c3c(-c4ccc(F)c(C)c4)nc4cccnn34)ccn2)cc1F [Example 42-12, 3-fluoro-N-{4-[2-(4-fluoro-3-methylphenyl)imidazo[1,2-b]pyridazin-3-yl]pyridin-2-yl}-4-methoxybenzamide]
219 to 220	CSc1ccc(NC(=O)Nc2cc(-c3c(-c4ccc(F)c(C)c4)nc4cccnn34)ccn2)cc1 [Example 51-6, N-{4-[2-(4-fluoro-3-methylphenyl)imidazo[1,2-b]pyridazin-3-yl]pyridin-2-yl}-N′-[4-(methylthio)phenyl]urea]
224 to 225	Cc1cc(-c2nc3cccnn3c2-c2ccnc(NC(=O)c3ccc(C(F)(F)F)cc3)c2)ccc1F [Example 42-13, N-{4-[2-(4-fluoro-3-methylphenyl)imidazo[1,2-b]pyridazin-3-yl]pyridin-2-yl}-4-(trifluoromethyl)benzamide]
223 to 224	CCNC(=O)Nc1cc(-c2c(-c3ccc(Cl)cc3)nc3cccnn23)ccn1 [Example Compound 28-8, N-{4-[2-(4-chlorophenyl)imidazo[1,2-b]pyridazin-3-yl]pyridin-2-yl}-N′-ethylurea]
264 to 266	Cc1cc(-c2nc3cccnn3c2-c2ccnc(NC(=O)c3ccc(Cl)cc3)c2)ccc1F.Cl
254 to 255	Cc1cc(-c2nc3cccnn3c2-c2ccnc(NC(N)=O)c2)ccc1F [Example 51-9, N-{4-[2-(4-fluoro-3-methylphenyl)imidazo[1,2-b]pyridazin-3-yl]pyridin-2-yl}urea]
229 to 230	CCNC(=O)Nc1cc(-c2c(-c3ccc(F)c(C)c3)nc3c(C)cc(Cl)nn23)ccn1 [Example 48-1, N-{4-[6-chloro-2-(4-fluoro-3-methylphenyl)-8-methylimidazo[1,2-b]pyridazin-3-yl]-2-pyridyl}-N′-ethylurea]
243 to 244	Cc1cc(-c2nc3c(C)ccnn3c2-c2ccnc(NC(=O)c3ccc(F)cc3)c2)ccc1F [Example 41-4, N-{4-[2-(4-fluoro-3-methylphenyl)-8-methylimidazo[1,2-b]pyridazin-3-yl]-2-pyridyl}-4-fluorobenzamide]
